Key:
[1] = molecular target: Serine/threonine-protein kinase mTOR (Homo sapiens, UniProt P42345); conditions: at 10 µM
[2] = tested on: Tyrosine-protein kinase ABL1 (Homo sapiens), P00519 [Q252H]; conditions: at 10 µM
[3] = molecular target: T1, Ephrin type-A receptor 3 (Homo sapiens) (UniProt P29320); assay: Selectivity interaction (KinomeScan (DiscoverX)) EUB0001049a EPHA3; conditions: at 1 µM
T1 sequence (whole entry): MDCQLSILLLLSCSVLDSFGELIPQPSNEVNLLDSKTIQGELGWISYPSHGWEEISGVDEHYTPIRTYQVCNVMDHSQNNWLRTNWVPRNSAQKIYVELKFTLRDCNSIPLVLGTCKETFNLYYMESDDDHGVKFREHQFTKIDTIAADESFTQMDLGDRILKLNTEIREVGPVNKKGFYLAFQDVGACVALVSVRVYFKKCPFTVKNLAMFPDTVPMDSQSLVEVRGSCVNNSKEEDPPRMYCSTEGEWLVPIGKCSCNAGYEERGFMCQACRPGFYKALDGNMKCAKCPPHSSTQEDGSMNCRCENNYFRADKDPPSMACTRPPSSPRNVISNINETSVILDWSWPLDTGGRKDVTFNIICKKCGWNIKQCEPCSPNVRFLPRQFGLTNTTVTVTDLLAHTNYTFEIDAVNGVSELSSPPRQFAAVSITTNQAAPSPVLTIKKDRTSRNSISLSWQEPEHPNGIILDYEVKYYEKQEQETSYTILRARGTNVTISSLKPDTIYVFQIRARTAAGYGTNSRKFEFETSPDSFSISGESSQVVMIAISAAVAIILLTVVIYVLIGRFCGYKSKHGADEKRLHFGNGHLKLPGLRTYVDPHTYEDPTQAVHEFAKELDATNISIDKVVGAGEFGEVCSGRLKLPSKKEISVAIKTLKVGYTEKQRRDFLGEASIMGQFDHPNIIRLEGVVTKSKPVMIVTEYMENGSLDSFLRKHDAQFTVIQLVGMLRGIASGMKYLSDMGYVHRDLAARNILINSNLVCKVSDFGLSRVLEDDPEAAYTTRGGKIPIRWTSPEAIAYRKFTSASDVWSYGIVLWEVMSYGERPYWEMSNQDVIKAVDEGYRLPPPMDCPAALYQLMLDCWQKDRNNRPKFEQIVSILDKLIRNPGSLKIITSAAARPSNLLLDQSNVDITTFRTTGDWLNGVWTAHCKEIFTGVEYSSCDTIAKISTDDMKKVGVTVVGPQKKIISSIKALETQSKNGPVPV

[4] = molecular target: T2, Serine/threonine-protein kinase NLK (Homo sapiens) (UniProt Q9UBE8); assay: Selectivity interaction (Ambit KINOMEscan and KiNATiv profiling in Jurkat cells) EUB0000090b NLK; assay type: cell-based; conditions: at 1 µM
T2 sequence (whole entry): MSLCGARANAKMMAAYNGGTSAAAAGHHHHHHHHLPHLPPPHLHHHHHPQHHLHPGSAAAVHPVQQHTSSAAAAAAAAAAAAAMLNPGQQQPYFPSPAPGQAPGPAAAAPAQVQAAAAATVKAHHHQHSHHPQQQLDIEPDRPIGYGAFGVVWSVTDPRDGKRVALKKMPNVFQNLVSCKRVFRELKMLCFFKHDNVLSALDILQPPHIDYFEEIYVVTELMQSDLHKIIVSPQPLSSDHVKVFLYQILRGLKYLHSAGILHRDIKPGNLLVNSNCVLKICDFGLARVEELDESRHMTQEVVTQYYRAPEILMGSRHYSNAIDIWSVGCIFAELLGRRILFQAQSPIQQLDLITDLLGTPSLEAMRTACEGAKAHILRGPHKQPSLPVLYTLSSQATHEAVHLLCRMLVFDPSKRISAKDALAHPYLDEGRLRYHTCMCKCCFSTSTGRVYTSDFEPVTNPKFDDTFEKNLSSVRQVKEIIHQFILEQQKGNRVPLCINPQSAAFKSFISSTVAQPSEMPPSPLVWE

[5] = molecular target: DNA (cytosine-5)-methyltransferase 3B (Homo sapiens) (UniProt Q9UBC3); assay: Selectivity interaction (Transferase panel (protein, RNA, and DNA methyltransferases. and EP300 (acetyltransferase))) EUB0000270b DNMT3B
[6] = molecular target: Tyrosine-protein kinase Srms (Homo sapiens) (UniProt Q9H3Y6); assay: Selectivity interaction (KinomeScan (DiscoverX)) EUB0000595a SRMS; conditions: at 10 µM
Tyrosine-protein kinase Srms (Homo sapiens), sequence (Q9H3Y6 whole entry): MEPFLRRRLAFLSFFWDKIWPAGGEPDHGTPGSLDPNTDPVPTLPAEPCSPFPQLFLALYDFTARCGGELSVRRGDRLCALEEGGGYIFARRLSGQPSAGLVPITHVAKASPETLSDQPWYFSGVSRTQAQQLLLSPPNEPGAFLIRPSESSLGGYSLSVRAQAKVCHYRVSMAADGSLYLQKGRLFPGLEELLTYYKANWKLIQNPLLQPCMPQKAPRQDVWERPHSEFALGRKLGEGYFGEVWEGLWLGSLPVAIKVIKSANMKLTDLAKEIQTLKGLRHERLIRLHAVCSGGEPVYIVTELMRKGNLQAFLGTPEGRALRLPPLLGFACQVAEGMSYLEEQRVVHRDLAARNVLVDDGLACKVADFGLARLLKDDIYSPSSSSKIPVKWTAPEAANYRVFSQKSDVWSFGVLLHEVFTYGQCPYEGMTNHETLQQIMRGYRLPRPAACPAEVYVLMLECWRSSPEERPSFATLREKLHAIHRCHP

[7] = molecular target: RAC-gamma serine/threonine-protein kinase (Homo sapiens, UniProt Q9Y243); assay: Selectivity interaction (KinomeScan (DiscoverX)) EUB0000595a AKT3; conditions: at 10 µM
RAC-gamma serine/threonine-protein kinase, sequence (Q9Y243 whole entry): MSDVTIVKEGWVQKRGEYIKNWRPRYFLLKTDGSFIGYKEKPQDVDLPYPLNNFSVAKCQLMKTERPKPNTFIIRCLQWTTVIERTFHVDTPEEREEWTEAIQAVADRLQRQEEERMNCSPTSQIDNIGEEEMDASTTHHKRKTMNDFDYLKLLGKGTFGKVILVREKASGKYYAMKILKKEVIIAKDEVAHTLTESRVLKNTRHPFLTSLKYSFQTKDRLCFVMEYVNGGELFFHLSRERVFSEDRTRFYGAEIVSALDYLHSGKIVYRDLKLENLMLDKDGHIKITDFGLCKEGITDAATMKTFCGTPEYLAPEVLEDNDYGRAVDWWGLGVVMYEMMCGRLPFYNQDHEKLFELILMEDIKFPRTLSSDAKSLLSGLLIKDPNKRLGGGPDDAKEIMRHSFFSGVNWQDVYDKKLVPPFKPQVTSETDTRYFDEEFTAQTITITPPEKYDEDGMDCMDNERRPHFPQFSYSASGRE

[8] = molecular target: Serine/threonine-protein kinase Chk2 (Homo sapiens) (UniProt O96017); assay: Selectivity interaction (KinomeScan (DiscoverX)) EUB0000092b CHEK2; conditions: at 10 µM
Serine/threonine-protein kinase Chk2 (Homo sapiens), sequence (O96017 whole entry): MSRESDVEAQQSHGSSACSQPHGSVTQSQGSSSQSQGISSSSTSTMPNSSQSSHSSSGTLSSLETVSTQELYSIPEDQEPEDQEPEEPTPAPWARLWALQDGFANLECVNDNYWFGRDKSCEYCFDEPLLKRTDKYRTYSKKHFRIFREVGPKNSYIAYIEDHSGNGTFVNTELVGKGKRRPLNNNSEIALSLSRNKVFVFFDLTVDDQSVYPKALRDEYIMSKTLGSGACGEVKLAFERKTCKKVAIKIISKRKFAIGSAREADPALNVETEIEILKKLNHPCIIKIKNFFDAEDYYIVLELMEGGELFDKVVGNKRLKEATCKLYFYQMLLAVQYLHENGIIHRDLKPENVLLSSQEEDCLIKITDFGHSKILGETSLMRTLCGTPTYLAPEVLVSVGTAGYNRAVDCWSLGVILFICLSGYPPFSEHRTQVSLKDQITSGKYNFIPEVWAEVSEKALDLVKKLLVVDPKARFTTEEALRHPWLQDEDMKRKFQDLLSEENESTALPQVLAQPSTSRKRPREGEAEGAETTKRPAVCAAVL

[9] = molecular target: T3, Serine/threonine-protein kinase TAO3 (Homo sapiens) (UniProt Q9H2K8); assay: Selectivity interaction (KinomeScan (DiscoverX)) EUB0000618a TAOK3; conditions: at 10 µM
T3 sequence (whole entry): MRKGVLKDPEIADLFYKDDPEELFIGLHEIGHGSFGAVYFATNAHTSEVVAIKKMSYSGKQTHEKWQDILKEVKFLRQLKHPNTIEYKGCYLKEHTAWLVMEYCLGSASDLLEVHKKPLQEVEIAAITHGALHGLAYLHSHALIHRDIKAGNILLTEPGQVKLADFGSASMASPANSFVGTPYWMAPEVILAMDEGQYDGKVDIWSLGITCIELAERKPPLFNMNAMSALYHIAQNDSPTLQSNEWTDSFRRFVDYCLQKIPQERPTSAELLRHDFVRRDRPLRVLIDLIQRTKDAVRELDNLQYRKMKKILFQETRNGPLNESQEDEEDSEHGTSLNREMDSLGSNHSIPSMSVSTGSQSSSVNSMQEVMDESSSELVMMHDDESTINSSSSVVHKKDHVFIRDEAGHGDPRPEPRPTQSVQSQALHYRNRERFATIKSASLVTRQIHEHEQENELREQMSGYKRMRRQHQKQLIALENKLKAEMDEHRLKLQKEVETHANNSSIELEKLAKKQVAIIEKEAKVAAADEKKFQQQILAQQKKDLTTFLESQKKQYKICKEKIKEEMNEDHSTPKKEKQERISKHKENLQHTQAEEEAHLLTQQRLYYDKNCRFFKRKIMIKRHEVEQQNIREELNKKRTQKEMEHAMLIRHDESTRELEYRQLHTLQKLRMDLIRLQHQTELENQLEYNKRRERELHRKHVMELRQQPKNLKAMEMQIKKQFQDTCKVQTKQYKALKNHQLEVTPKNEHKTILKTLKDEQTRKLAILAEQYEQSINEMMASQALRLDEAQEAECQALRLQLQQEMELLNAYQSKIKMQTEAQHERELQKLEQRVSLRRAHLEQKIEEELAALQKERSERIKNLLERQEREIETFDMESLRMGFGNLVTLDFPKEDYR

[10] = molecular target: Focal adhesion kinase 1 (Homo sapiens, UniProt Q05397); assay: Selectivity interaction (KinomeScan (DiscoverX)) EUB0000666a PTK2; conditions: at 10 µM
Focal adhesion kinase 1, sequence (Q05397 2-1052 limits assumed): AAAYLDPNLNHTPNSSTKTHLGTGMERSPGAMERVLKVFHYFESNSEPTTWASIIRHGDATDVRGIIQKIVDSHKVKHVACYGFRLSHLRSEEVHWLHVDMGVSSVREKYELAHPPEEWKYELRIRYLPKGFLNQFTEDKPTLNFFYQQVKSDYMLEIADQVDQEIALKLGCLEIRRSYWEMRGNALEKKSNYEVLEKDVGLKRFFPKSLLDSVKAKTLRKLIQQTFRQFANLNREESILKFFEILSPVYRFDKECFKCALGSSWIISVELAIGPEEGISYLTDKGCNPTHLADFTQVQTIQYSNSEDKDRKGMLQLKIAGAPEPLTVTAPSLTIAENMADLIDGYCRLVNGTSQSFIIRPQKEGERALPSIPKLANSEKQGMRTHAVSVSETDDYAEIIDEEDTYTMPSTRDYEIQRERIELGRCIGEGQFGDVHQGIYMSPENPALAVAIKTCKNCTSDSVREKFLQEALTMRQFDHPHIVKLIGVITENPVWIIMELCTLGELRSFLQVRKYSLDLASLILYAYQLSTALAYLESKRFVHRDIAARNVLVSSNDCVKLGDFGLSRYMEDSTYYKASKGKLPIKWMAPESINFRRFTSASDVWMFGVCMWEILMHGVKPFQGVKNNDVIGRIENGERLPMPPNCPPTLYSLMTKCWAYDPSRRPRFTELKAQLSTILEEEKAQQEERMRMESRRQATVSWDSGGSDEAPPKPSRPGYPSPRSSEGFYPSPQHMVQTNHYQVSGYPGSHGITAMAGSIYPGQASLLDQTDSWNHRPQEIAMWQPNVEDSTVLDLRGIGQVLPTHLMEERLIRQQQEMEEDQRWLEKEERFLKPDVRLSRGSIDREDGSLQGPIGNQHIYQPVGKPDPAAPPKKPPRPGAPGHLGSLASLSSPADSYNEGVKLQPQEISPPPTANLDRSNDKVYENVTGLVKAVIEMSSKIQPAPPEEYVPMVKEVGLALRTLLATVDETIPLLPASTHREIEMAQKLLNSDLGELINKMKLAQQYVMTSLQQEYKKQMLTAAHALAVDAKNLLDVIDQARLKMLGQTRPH

`Cc1cc([C@@H](C)Nc2ccccc2C(=O)O)c2nc(N3CCOCC3)cc(=O)n2c1` [AZD-6482] showed a % of control [1] of 11% and a % of control [2] of 100%.
`COc1cc(Nc2nc(C)cc(-c3cnn4nc(OC)ccc34)n2)cc(C(F)(F)F)c1` gave a % of control [3] of 80%.
`CN(C)C/C=C/C(=O)Nc1ccc(C(=O)N2CCCC(Nc3ncc(Cl)c(-c4c[nH]c5ccccc45)n3)C2)cc1` (stereo unspecified) gave a % of control [4] of 52%.
In the case of `Cc1cc(CN)cc(C)c1-c1ncn(C)c1-c1cncn1C`, the % activity ([5]; at 1 µM) is reported as greater than 90% and the % activity ([5]; at 10 µM) is reported as greater than 80%.
For `COCC(=O)NC/C=C/c1ccc2ncnc(Nc3ccc(Oc4ccc(C)nc4)c(C)c3)c2c1` [CP-724714], the % of control [6] was 71% and the % of control [7] was 100%.
`CCC(=O)N1CCN(c2ccc(-n3c(=O)ccc4cnc5ccc(-c6cnc7ccccc7c6)cc5c43)cc2C(F)(F)F)CC1` showed a % of control [8] of 100%.
`O[C@H]1CC[C@H](Nc2ncc3nc(Nc4c(F)cc(F)cc4F)n([C@H]4CCOC4)c3n2)CC1` gave a % of control [9] of 81%.
Molecule `O=C(NOC[C@H](O)CO)c1ccc(F)c(F)c1Nc1ccc(I)cc1F` has a % of control [10] of 85%.

Reference: ChEMBL document CHEMBL5465560, “Selectivity Literature for EUbOPEN Chemogenomic Library” (2024)
